Results on twelve compounds are retold here after ChEMBL document CHEMBL2177090, “Ceric ammonium nitrate-promoted oxidative coupling reaction for the synthesis and evaluation of a series of anti-tumor amide anhydrovinblastine analogs” (Bioorg Med Chem Lett, 2012).

Usually IC50 stands for the midpoint of a concentration-inhibition curve. The low end stands for inhibition by little substance, the high end for a need for much substance.

Molecules are shown by their SMILES.

The subject of this experiment is HeLa. The experiment can be described thus: Cytotoxicity against human HeLa cells by MTT assay. The experiment is classed as functional, cell-based. In general terms: Formazan colour is commonly taken as a measure of viable cells.

For `CCC1=C[C@H]2CN(CCc3c([nH]c4ccccc34)[C@@](C(=O)OC)(c3cc4c(cc3OC)N(C)[C@H]3[C@@](O)(CCNC(C)=O)[C@H](OC(C)=O)[C@]5(CC)C=CCN6CC[C@]43[C@@H]65)C2)C1`, it took 0.057 µM to reach half-maximal inhibition (IC50).
The value for `CCC(=O)NCC[C@@]1(O)[C@H](OC(C)=O)[C@]2(CC)C=CCN3CC[C@@]4(c5cc([C@@]6(C(=O)OC)C[C@H]7C=C(CC)CN(CCc8c6[nH]c6ccccc86)C7)c(OC)cc5N(C)[C@@H]14)[C@@H]32` was 0.11 µM.
Then `CCC1=C[C@H]2CN(CCc3c([nH]c4ccccc34)[C@@](C(=O)OC)(c3cc4c(cc3OC)N(C)[C@H]3[C@@](O)(CCNC(=O)C(C)C)[C@H](OC(C)=O)[C@]5(CC)C=CCN6CC[C@]43[C@@H]65)C2)C1`, with 0.026 µM.
Then `CCC1=C[C@H]2CN(CCc3c([nH]c4ccccc34)[C@@](C(=O)OC)(c3cc4c(cc3OC)N(C)[C@H]3[C@@](O)(CCNC(=O)CC(C)C)[C@H](OC(C)=O)[C@]5(CC)C=CCN6CC[C@]43[C@@H]65)C2)C1`, with 0.185 µM.
As for `CCC1=C[C@H]2CN(CCc3c([nH]c4ccccc34)[C@@](C(=O)OC)(c3cc4c(cc3OC)N(C)[C@H]3[C@@](O)(CCNC(=O)C5CC5)[C@H](OC(C)=O)[C@]5(CC)C=CCN6CC[C@]43[C@@H]65)C2)C1`, the IC50 is 0.142 µM.
`CCC1=C[C@H]2CN(CCc3c([nH]c4ccccc34)[C@@](C(=O)OC)(c3cc4c(cc3OC)N(C)[C@H]3[C@@](O)(CCNC(=O)c5ccccc5)[C@H](OC(C)=O)[C@]5(CC)C=CCN6CC[C@]43[C@@H]65)C2)C1` came in with an IC50 of 0.107 µM.
The value for `CCC1=C[C@H]2CN(CCc3c([nH]c4ccccc34)[C@@](C(=O)OC)(c3cc4c(cc3OC)N(C)[C@H]3[C@@](O)(CCNC(=O)c5ccc(C)cc5)[C@H](OC(C)=O)[C@]5(CC)C=CCN6CC[C@]43[C@@H]65)C2)C1` was 0.259 µM; that for `CCC1=C[C@H]2CN(CCc3c([nH]c4ccccc34)[C@@](C(=O)OC)(c3cc4c(cc3OC)N(C)[C@H]3[C@@](O)(CCNC(=O)c5cccc(OC)c5)[C@H](OC(C)=O)[C@]5(CC)C=CCN6CC[C@]43[C@@H]65)C2)C1` was 0.169 µM.
Then `CCC1=C[C@H]2CN(CCc3c([nH]c4ccccc34)[C@@](C(=O)OC)(c3cc4c(cc3OC)N(C)[C@H]3[C@@](O)(CCNC(=O)c5ccccc5OC)[C@H](OC(C)=O)[C@]5(CC)C=CCN6CC[C@]43[C@@H]65)C2)C1`, with 0.234 µM.
The value for `CCC1=C[C@H]2CN(CCc3c([nH]c4ccccc34)[C@@](C(=O)OC)(c3cc4c(cc3OC)N(C)[C@H]3[C@@](O)(CCNC(=O)c5ccccc5F)[C@H](OC(C)=O)[C@]5(CC)C=CCN6CC[C@]43[C@@H]65)C2)C1` was 0.247 µM; that for `CCC1=C[C@H]2CN(CCc3c([nH]c4ccccc34)[C@@](C(=O)OC)(c3cc4c(cc3OC)N(C)[C@H]3[C@@](O)(CCNC(=O)c5ccco5)[C@H](OC(C)=O)[C@]5(CC)C=CCN6CC[C@]43[C@@H]65)C2)C1` was 0.018 µM; that for `CCC1=C[C@@H]2CN(C1)Cc1c([nH]c3ccccc13)[C@@](C(=O)OC)(c1cc3c(cc1OC)N(C)[C@H]1[C@@](O)(C(=O)OC)[C@H](OC(C)=O)[C@]4(CC)C=CCN5CC[C@]31[C@@H]54)C2` [VINORELBINE] was 0.027 µM.
